# Reference: patent US20240174631A1, “COMPOUNDS, COMPOSITIONS, AND METHODS FOR MODULATING FGF ACTIVITY” (Recovery Therapeutics, Inc., priority 2021, published 2024)
# Assays:
# FGF2 = target: T1, FGF2 (Homo sapiens, UniProt P09038); assay: Thermal shift assay (TSA) of FGFR1/FGF2 complex, FGF2 melting peak; format: binding; settings: for ΔTm at 10 µM: 10 μM compound; for ΔTm at 100 µM: 100 μM compound; for ΔTm at 25 µM: 25 μM compound; for ΔTm at 2 µM: 2 μM compound
# T1 construct: made in house; host or cells: Escherichia coli BL21 (DE3) Star
# T1 sequence (P09038 156-288 limits assumed): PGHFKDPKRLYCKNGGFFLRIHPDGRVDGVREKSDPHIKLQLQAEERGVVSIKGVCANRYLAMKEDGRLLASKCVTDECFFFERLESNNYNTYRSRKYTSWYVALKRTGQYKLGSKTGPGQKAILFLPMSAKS
# T1 sequence (P11362 142-365 partner limits assumed): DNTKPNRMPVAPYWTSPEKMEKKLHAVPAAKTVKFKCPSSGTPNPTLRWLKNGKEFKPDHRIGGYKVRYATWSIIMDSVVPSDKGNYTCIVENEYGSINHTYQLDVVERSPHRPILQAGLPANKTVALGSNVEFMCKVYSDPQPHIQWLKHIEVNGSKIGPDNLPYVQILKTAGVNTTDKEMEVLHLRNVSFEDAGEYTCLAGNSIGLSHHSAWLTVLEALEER
# Text: (§1) TSA was utilized to biophysically characterize the recombinant human FGFR1/FGF2 complex in the presence or absence of compounds. The assay functions by protein denaturation over a temperature gradient. During protein unfolding, exposed hydrophobic regions bind a dye and fluoresce due to solvent relaxation effects. Changes in the melting temperature of the protein complex in the presence of each compound were monitored and compounds were screened/ranked using this method.
# One Shot BL21 (DE3) Star Escherichia coli competent cells (Thermo Fisher) were transformed with a relevant FGF2 plasmid and inoculated onto Ampicillin Luria Broth/Agar plates. Two hundred milliliter portions of Terrific Broth starter cultures were used to inoculate 9 L cultures with ampicillin at a concentration of 100 μg/mL. Cultures were grown to an O.D.600 near 1.0 at 37° C., and induced with IPTG overnight at 18° C. The cells were harvested at 7000 RPM in rotor 6000 for 5 min at 4° C. and stored at −80° C. Bacterial pellets were resuspended in 25 mM Hepes-NaOH, pH 7.5, 250 mM NaCl, and the cells were lysed in 3 cycles on/off for 3 minutes each at 4° C. via sonication. After centrifugation for 30 minutes at 16,000 RPM at 4° C., the isolated pellets were discarded, and the supernatant was filtered supernatant through a […] PES filter using 100 mL superloop. The lysate was purified over a 5 mL S column by washing the column with Lysis buffer for 5 CV then eluting using gradient from 250 mM to 1 M NaCl over 20 CV. The fractions containing FGF2 were identified via SDS-PAGE gel (Expected Mw: 15.2 KDa). The protein was collected and diluted in 20 mM Tris-HCl pH 8.0, 25 mM MgCl2 buffer in order to reach a NaCl concentration of 150 mM. The purified FGF2 was concentrated and stored at −80° C.
# (§2) Thawed aliquots of purified FGF2 (1.0 mg/mL) and FGFR1 (1.6 mg/mL) proteins were mixed in a 1:1 molar ratio (64 μM: 64 μM) on ice for 30 min at 4° C. and plated prior to the thermal shift assay (TSA). Complex formation was verified by loading the complexed material on a size exclusion column (superdex 300GL S200) and observing the monodisperse peak corresponding to the FGF2/FGFR1 complex (˜40 kDa). Compounds of the invention were screened in dose response format (0-100 μM) with the FGF2/FGFR1 complex in triplicates. FGF2/FGFR1/compound complexes were mixed in a 1000:1 ratio with Sypro Orange dye (Sigma-Aldrich). The samples were processed using a Bio-Rad CFX C96 Touch quantitative polymerase chain reaction and run using the FRET assay settings with a heating ramp of 0.3° C./s cycling from 4 to 100° C. Data analysis was performed using the Bio-Rad CFX Manager Software (version 3.1, Bio-Rad) and changes in the melting temperature (Tm) of the complex in the presence of each compound were monitored. The results are shown in Tables 2 and 3 below and also in FIG. 1 (for Compound 2).
# FGFR1 = FGFR1 (Homo sapiens, UniProt P11362); assay: Thermal shift assay (TSA) of FGFR1/FGF2 complex, FGFR1 melting peak; format: binding; design: made in house; host or cells: Escherichia coli BL21 (DE3) Star; settings: FGF2/FGFR1 complex; for ΔTm at 10 µM: 10 μM compound; for ΔTm at 100 µM: 100 μM compound; for ΔTm at 25 µM: 25 μM compound; for ΔTm at 2 µM: 2 μM compound
# FGFR1, sequence (P11362 142-365 limits assumed): as the sequence (P11362 142-365 partner limits assumed) above
# FGFR1, sequence (P09038 156-288 partner limits assumed): as the sequence (P09038 156-288 limits assumed) above
# Text: as §1
# Cell pellets were thawed and resuspend in 100 mL of FGFR1 Lysis Buffer per 9 g of pellet (20 mM Tris-HCl pH 8.0, 500 mM NaCl, 1 mM dithiothreitol) by stirring at 4° C. for 1 hour. Cells were lysed in 3 cycles on/off for 3 minutes each at 4° C. via sonication followed by centrifugation for 30 minutes at 16,000 RPM in rotor F20 at 4° C., after which the supernatant was discarded. This process was then repeated twice. The pellets were resuspended in 150 mL FGFR1 solubilization buffer (8 M urea, 20 mM Tris-HCL pH 8.0, 150 mM NaCl, 1 mM dithiothreitol) by stirring for 1 hour at 4° C., and the solution was subjected to centrifugation for 30 minutes at 16,000 RPM in rotor F20 at 4° C. The pellets were discarded, and the supernatant was filtered through a […] polyethersylfone (PES) filter. After filtration, the supernatant was added dropwise to 1 L FGFR1 refolding buffer (20 mM Tris-HCl pH 8.0, 150 mM NaCl, 0.5 M L-arginine, 25 mM MgCl2) using a glass column. Protein was concentrated by tangential flow from 1 L to 100 mL and dialyzed against 1 L of FGFR1 Dialysis Buffer (20 mM Tris-HCl pH 8.0, 150 mM NaCl, 25 mM MgCl2) for 2 hours at 4° C., and the dialysis step was repeated with fresh buffer for an additional 2 hours at 4° C. The material thus obtained was then centrifuged at 4000 RPM in Eppendorf tabletop centrifuge for 5 minutes and loaded onto 2×5 mL heparin columns. The columns were washed extensively (20 CV) using FGFR1 Heparin Buffer A (20 mM Tris-HCl pH 8.0, 150 mM NaCl, 25 mM MgCl2) and then eluted using FGFR1 Heparin Buffer B (20 mM Tris-HCl pH 8.0, 1.5 M NaCl, 25 mM MgCl2). A large peak was recovered that was >95% pure by SDS-PAGE analysis gel (Expected Mw: 25 KDa). The protein was collected and diluted in 20 mM Tris-HCl pH 8.0, 25 mM MgCl2 buffer in order to reach a NaCl concentration of 150 mM. The FGFR1 thus obtained was concentrated and stored at −80° C.
# as §2
structure (smiles),measurement,setting,value
"Brc1ccc2c(c1)CCN(C1CCN(C(c3ccccc3)c3ccccc3)CC1)C2 [Compound 1, 2-(1-benzhydrylpiperidin-4-yl)-6-bromo-1,2,3,4-tetrahydroisoquinoline]",ΔTm at 10 µM,FGF2,-1.5 °C
same,ΔTm at 100 µM,FGF2,-1.8 °C
same,ΔTm at 10 µM,FGFR1,2 °C
same,ΔTm at 100 µM,FGFR1,3 °C
"N#Cc1ccc2c(c1)CCN(C1CCN(C(c3ccccc3)c3ccccc3)CC1)C2 [Compound 3, 2-(1-benzhydrylpiperidin-4-yl)-1,2,3,4-tetrahydroisoquinoline-6-carbonitrile]",ΔTm at 25 µM,FGF2,3.7 °C
same,ΔTm at 25 µM,FGFR1,0 °C
"c1ccc(C(c2ccccc2)N2CCC(N3CCc4ccncc4C3)CC2)cc1 [Compound 4, 2-(1-benzhydrylpiperidin-4-yl)-1,2,3,4-tetrahydro-2,7-naphthyridine]",ΔTm at 2 µM,FGF2,-2.2 °C
same,ΔTm at 2 µM,FGFR1,14.5 °C
"Clc1ccc2c(c1)CCN(C1CCN(C(c3ccccc3)c3ccccc3)CC1)C2 [Compound 5, 2-(1-benzhydrylpiperidin-4-yl)-6-chloro-1,2,3,4-tetrahydroisoquinoline]",ΔTm at 25 µM,FGF2,-1.7 °C
same,ΔTm at 25 µM,FGFR1,1.2 °C
"Fc1ccc2c(c1)CCN(C1CCN(C(c3ccccc3)c3ccccc3)CC1)C2 [Compound 6, 2-(1-benzhydrylpiperidin-4-yl)-6-fluoro-1,2,3,4-tetrahydroisoquinoline]",ΔTm at 25 µM,FGF2,0 °C
same,ΔTm at 25 µM,FGFR1,1.5 °C
"Fc1cccc2c1CCN(C1CCN(C(c3ccccc3)c3ccccc3)CC1)C2 [Compound 7, 2-(1-benzhydrylpiperidin-4-yl)-5-fluoro-1,2,3,4-tetrahydroisoquinoline]",ΔTm at 10 µM,FGF2,-0.2 °C
same,ΔTm at 10 µM,FGFR1,10.7 °C
"Fc1ccc2c(c1)CN(C1CCN(C(c3ccccc3)c3ccccc3)CC1)CC2 [Compound 8, 2-(1-benzhydrylpiperidin-4-yl)-7-fluoro-1,2,3,4-tetrahydroisoquinoline]",ΔTm at 10 µM,FGF2,-0.5 °C
same,ΔTm at 10 µM,FGFR1,3.3 °C
"Fc1cccc2c1CN(C1CCN(C(c3ccccc3)c3ccccc3)CC1)CC2 [Compound 9, 2-(1-benzhydrylpiperidin-4-yl)-8-fluoro-1,2,3,4-tetrahydroisoquinoline]",ΔTm at 100 µM,FGF2,0 °C
same,ΔTm at 100 µM,FGFR1,0 °C
"c1ccc(C(c2ccccc2)N2CCC(N3CCc4cccnc4C3)CC2)cc1 [Compound 14, 7-(1-benzhydrylpiperidin-4-yl)-5,6,7,8-tetrahydro-1,7-naphthyridine]",ΔTm at 25 µM,FGF2,-3.3 °C
same,ΔTm at 25 µM,FGFR1,5.4 °C
"c1ccc(C(c2ccccc2)N2CCC(N3CCc4ncccc4C3)CC2)cc1 [Compound 17, 6-(1-benzhydrylpiperidin-4-yl)-5,6,7,8-tetrahydro-1,6-naphthyridine]",ΔTm at 10 µM,FGF2,-2.7 °C
same,ΔTm at 10 µM,FGFR1,3 °C
"c1ccc(C(c2ccccc2)N2CCC(N3CCc4cnccc4C3)CC2)cc1 [Compound 19, 2-(1-benzhydrylpiperidin-4-yl)-1,2,3,4-tetrahydro-2,6-naphthyridine]",ΔTm at 25 µM,FGF2,-3 °C
same,ΔTm at 25 µM,FGFR1,2.8 °C
"FC1(F)CN(C2CCN(C(c3ccccc3)c3ccccc3)CC2)Cc2ccccc21 [Compound 21, 2-(1-benzhydrylpiperidin-4-yl)-4,4-difluoro-1,2,3,4-tetrahydroisoquinoline]",ΔTm at 2 µM,FGF2,-3.6 °C
same,ΔTm at 2 µM,FGFR1,11.6 °C
"Fc1cccc2c1CCN(C1CN(C(c3ccccc3)c3ccccc3)C1)C2 [Compound 38, 2-(1-benzhydrylazetidin-3-yl)-5-fluoro-1,2,3,4-tetrahydroisoquinoline]",ΔTm at 2 µM,FGF2,-2.7 °C
same,ΔTm at 2 µM,FGFR1,9.8 °C
"Brc1ccc2c(c1)CCN(C1CN(C(c3ccccc3)c3ccccc3)C1)C2 [Compound 43, 2-(1-benzhydrylazetidin-3-yl)-6-bromo-1,2,3,4-tetrahydroisoquinoline]",ΔTm at 100 µM,FGF2,-4.5 °C
same,ΔTm at 100 µM,FGFR1,6.6 °C
"CCN(CC)c1ccc2c(c1)CCN(C1CN(C(c3ccccc3)c3ccccc3)C1)C2 [Compound 56, 2-(1-benzhydrylazetidin-3-yl)-N,N-diethyl-1,2,3,4-tetrahydroisoquinolin-6-amine]",ΔTm at 100 µM,FGF2,0 °C
same,ΔTm at 100 µM,FGFR1,-0.5 °C
"Fc1ccc(CN2CCC(N3CCc4cc(Br)ccc4C3)CC2)cc1 [Compound 81, 6-bromo-2-(1-(4-fluorobenzyl)piperidin-4-yl)-1,2,3,4-tetrahydroisoquinoline]",ΔTm at 100 µM,FGF2,0 °C
same,ΔTm at 100 µM,FGFR1,0.3 °C
"CCN(CC)c1ccc2c(c1)CCN(C1CCN(Cc3ccc(F)cc3)CC1)C2 [Compound 85, N,N-diethyl-2-(1-(4-fluorobenzyl)piperidin-4-yl)-1,2,3,4-tetrahydroisoquinolin-6-amine]",ΔTm at 2 µM,FGF2,0 °C
same,ΔTm at 2 µM,FGFR1,14 °C
